The values that follow are results of earlier work, collected in article PMC5766731 (Clinical Pharmacokinetics, 2017).

Structures are written as SMILES.

For the data set the following is noted: cited from earlier work.

In the case of `O=C(O)CNC(=O)c1ncc(-c2cccc(Cl)c2)cc1O` [vadadustat], the “pharmacokinetics in CKD patients (stages 3 and 4)” value is reported as “not found to be significantly altered”. Further, where the note is “healthy subjects”, the “renal CL mechanisms, share of the radioactive dose” value is listed as “approximately 59%”.
